# Laboratory results from patent US20230263817A1, “HIGH DOSE NICOTINAMIDE ADENINE DINUCLEOTIDE (NAD) PRECURSOR REGIMENS FOR REDUCTION OF INFLAMMATION IN HUMAN PATIENTS WITH PREEXISTING INFLAMMATION” (University of Washington, priority 2021, published 2023).
# What was measured:
# [1] = Adverse effects of oral NR in Stage D HF patients; format: in vivo, human; conditions: oral NR 5-9 days, 5 participants
# Protocol: For experiments associated with the oral NR administration (FIGS. 12C-12F), 5 hospitalized Stage D HF patients undergoing advanced heart failure therapy evaluations were put on escalating doses of NR (250 mg twice a day for Day 1, 500 mg twice a day for Day 2, and 1000 mg twice a day from Day 3 on) for 5-9 days. Fasting blood samples were obtained for PBMC isolation at baseline and post-NR administration. Subject 5 was withdrawn due to a change in clinical course deemed to be independent from NR administration.
# [2] = Randomized placebo-controlled 12-week trial of NR in clinically-stable HFrEF: safety and tolerability; format: in vivo, human
# From the text: The remaining 30 participants met all the prespecified inclusion criteria of: 1) Systolic HF (LVEF<40%, as determined by transthoracic echocardiogram) of non-ischemic or ischemic etiologies, 2) clinically stable (no cardiac procedures or hospitalizations for cardiac causes, including HF, ischemia or arrhythmia) within the prior 3 months, 3) ability to perform Study procedures (including study visits, blood draws and 6MWT), 4) willingness/ability to provide informed consent. None had any of the following exclusion criteria: 1) Heart failure with preserved ejection fraction (LVEF>40%), 2) HF etiologies other than non-ischemic or ischemic, 3) cardiac procedures, including, cardiac surgery, PCI, or cardiac device implantation, within the previous 3 months, 4) hospitalizations for cardiovascular causes, including HF, chest pain, stroke/TIA or arrhythmias within the prior 3 months, 5) inability to perform Study visits or procedures (e.g., physical inability to perform 6MWT), 6) unwillingness or inability to provide informed consent, 7) Alanine transaminase (ALT)>×3 upper limit of normal, hepatic insufficiency or active liver disease, 8) recent history of acute gout, 9) chronic renal insufficiency with serum creatinine ≥2.5 mg/dl, 10) pregnant or likely to become pregnant, 11) significant co-morbidity likely to cause death within 6 months, 12) significant history of active substance abuse within the previous 5 years, 13) current participation in a clinical trial of a study drug or intervention, and 14) prior intolerance to NR precursors, including niacin or nicotinamide. Follow-up was completed on all 30 participants. Study medication was discontinued in one participant due to gastrointestinal intolerance, but they completed all follow-up visits and procedures. The final participant refused to complete any study visits or procedures after the Week 0 (Randomization Visit), but their vital status was confirmed at the end of the Study. No participants were excluded from analysis, which followed the principal of intention-to-treat. The standardized method for characterizing adverse events employed in the UW Clinical Trials Unit is the Common Terminology Criteria for Adverse Events v3.0 (CTCAE). There were 18 protocol deviations.
# Study Design: The overall Study Design is depicted graphically in FIG. 15. Participant clinic visits, medication dispensing and data collection were performed on the Translational Research Unit (TRU) at the University of Washington (UW). […] History included assessment with the Minnesota Living with Heart Failure Questionnaire (MLHFQ), under license from the University of Minnesota (Minneapolis, Minn.).
# Participants were randomized to NR or placebo at a 2:1 allocation ratio by the University of Washington Investigational Drug Service, which assigned Study IDs and dispensed study medications.
# At Week 0 (Randomization), participants underwent history, repeat 6MWD assessment and baseline transthoracic echocardiogram (FIG. 15). NR or matching placebo were started at the initial dose of 250 mg orally twice daily, then up-titrated by 250 mg twice daily each week to a final dose of 1000 mg twice daily by Week 3. Participants were continued on the 1000 mg twice daily dose until the final clinic visit on Week 12. Blood draws for study labs, including levels of NR and NAD were obtained at Weeks 0, 2, 4 and 12. Medications were dispensed at Weeks 0, 2, 4 and 8, with pill counts performed at Weeks 2, 4, 8 and 12. A telephone visit was performed at Week 6. The final echocardiogram and PBMC mitochondrial respiration assays were performed at Week 12. Study labs were performed by the UW Research Testing Service, except for NR and NAD+ assays, which were performed by the Pharmacokinetics Laboratory, Department of Pharmaceutics, UW School of Pharmacy. Procedures for blood collection and processing, as well as NR and NAD+ assay procedures, have been described previously (Airhart S E, et al., PLoS One. 2017, 12:e0186459).
smiles,measurement,setting,value
"NC(=O)c1ccc[n+]([C@@H]2O[C@H](CO)[C@@H](O)[C@H]2O)c1 [NR, nicotinamide riboside]",adverse effect associated with NR,[1],No adverse effect
same,total AEs reported on-trial,[2]; 20-participant NR group,63
same,"treatment-emergent laboratory abnormalities, NR vs placebo","[2]; HFrEF, 12 weeks",no significant differences
same,"treatment-emergent adverse events (AEs), NR vs placebo","[2]; HFrEF, up to 1000 mg twice daily, 12 weeks",no between-group differences
same,safety and tolerability,"[2]; dose up to 1000 mg twice daily, total treatment duration of 12 weeks",well-tolerated
same,out-of-range lab values,[2]; patients randomized to NR,creatinine greater than 1.5× but less than 3× baseline on 2 occasions in 1 patient
same,percentages of dispensed capsules taken (range),"[2]; returned pill counts, NR group",97 (91-100) %
